# Reference: the OPERA property sets (Mansouri et al. 2018)
SMILES,boiling point,log10 Koc (L/kg),log10 vapour pressure (mmHg),melting point,ready biodegradability,log10 Henry constant (atm·m³/mol),log10 Koa
CCN(CC)c1ccccc1,216 °C,2.08,-0.866,-38.8 °C,not readily biodegradable,,
CCSCCSCC,217 °C,,,180 °C,,,
CCCCCCOc1ccc(O)cc1,,,,46 °C,,,
CCN(CC)CC(=O)OCC(=O)[C@@]1(O)CC[C@H]2[C@@H]3CCC4=CC(=O)C=C[C@]4(C)[C@H]3[C@@H](O)C[C@@]21C,,,,176 °C,,,
Fc1c(F)c(F)c(Br)c(F)c1F,137 °C,,0.903,-31 °C,,,
O=C1OC(=O)C(F)(F)C(F)(F)C1(F)F,72 °C,,,,,,
Nc1cc(Cl)c(Cl)c(Cl)c1,,,,99 °C,,,
CC(C)CC(=O)OC(C)C,142 °C,,,,,,
OCC(O)COc1ccccc1Cl (centres undefined),,,,71.5 °C,,,
CC1=NOC(=O)/C1=N\Nc1ccccc1Cl,,,,168 °C,,,
c1ccc2c(c1)COC2,192 °C,,,,,,
CC(=O)c1ccc(C)c(C)c1,246 °C,,,-3 °C,,,
Oc1c(Cl)cc(Cl)c(Cl)c1Cl,,3.35,-3.18,70 °C,not readily biodegradable,,
Oc1ccc(-c2ccccc2)cc1,305 °C,,,166 °C,not readily biodegradable,,
CC[C@H](CC[C@@H](C)[C@H]1CC[C@H]2C3=CC=C4C[C@@H](O)CC[C@]4(C)[C@H]3CC[C@]12C)C(C)C,,,,144 °C,,,
COc1ccc(C=O)c2ccccc12,,,,34.8 °C,,,
C[C@@H]1C[C@H]2CC[C@H](O2)[C@H](C)C(=O)O[C@@H](C)C[C@@H]2CC[C@@H](O2)[C@@H](C)C(=O)O[C@H](C)C[C@H]2CC[C@H](O2)[C@H](C)C(=O)O[C@@H](C)C[C@@H]2CC[C@@H](O2)[C@@H](C)C(=O)O1,,,,148 °C,,,
CC1CC(OC(=O)C(O)c2ccccc2)CC(C)(C)N1C (centres undefined),,,,113 °C,,,
CC(=O)CC(=O)Nc1ccc(-c2ccc(NC(=O)CC(C)=O)c(C)c2)cc1C,,,,212 °C,not readily biodegradable,,
Cc1c2ccccc2c(C)c2c1ccc1ccccc12,,5.37,,122 °C,,,
BrCC(Br)(Br)CBr,,,,10.5 °C,,,
COC(=O)c1ccc(O)cc1O,,,,120 °C,,,
O=C(Cl)C(Cl)=C(Cl)Cl,158 °C,,,,,,

SMILES,boiling point,log10 Koc (L/kg),log10 vapour pressure (mmHg),melting point,ready biodegradability,log10 Henry constant (atm·m³/mol),log10 Koa
N#CSCCl,185 °C,,,,,,
O=C(O)c1cccnc1C(=O)O,,,,228 °C,readily biodegradable,,
CCCCOCCOCCOCCO,278 °C,,-2.6,-30 °C,,,
N=C(N)NCCC[C@H](N)C(=O)O,,,,,readily biodegradable,,
C1OC1C1CO1 (centres undefined),,0.4,1.59,,,,
CCCC(=O)OC,103 °C,,1.51,-85.8 °C,,-3.69,
Clc1cc(Cl)c2c(c1)oc1c(Cl)cc(Cl)cc12,,,-7.57,177 °C,,,
CCOC(=O)C(Cc1ccccc1)C(=O)OCC,300 °C,,,,,,
NC(=O)N1c2ccccc2C=Cc2ccccc21,,,,190 °C,,,
CC1CCCC(C)(C)C1=O (centres undefined),178 °C,,,-31.8 °C,,,
NC(=O)Nc1cccc(C(F)(F)F)c1,,1.98,,,,,
O=C(O)c1cccc([N+](=O)[O-])c1,,,,141 °C,not readily biodegradable,,
Cc1nn(C)c(Oc2ccccc2)c1C=NOCc1ccc(C(=O)OC(C)(C)C)cc1,,,,102 °C,,,
CCCCCCCCCCCC(=O)OCCOCCO,,,,17.5 °C,,,
CC[Si](Cl)(Cl)CC,,,,-96.5 °C,,,
C=CCOC,44 °C,,,,,,
Cc1ccc2[nH]c(C)cc2c1,,,,115 °C,,,
C=C(Cl)C#N,88.5 °C,,,-65 °C,,,
CC(CCO)CC(F)(F)F (centres undefined),159 °C,,,,,,
Clc1ccc2c(c1)C(N1CCNCC1)=Nc1ccccc1O2,,,,176 °C,,,
Cc1ccc(S(=O)(=O)Nc2ccccc2C)cc1,,,,110 °C,,,
CN(C)c1nc(=O)n(C2CCCCC2)c(=O)n1C,,1.73,-6.65,116 °C,,,
CC(C)Nc1ccc(NC(C)C)c2c1C(=O)c1ccccc1C2=O,,,,,not readily biodegradable,,

SMILES,boiling point,log10 Koc (L/kg),log10 vapour pressure (mmHg),melting point,ready biodegradability,log10 Henry constant (atm·m³/mol),log10 Koa
Nc1cccc(C(=O)c2cccc(N)c2)c1,,,,174 °C,,,
CCN(C#N)CC,188 °C,,,-80.6 °C,,,
Nc1ncnc2c1ncn2[C@H]1CC[C@@H](CO)O1,,,,185 °C,,,
CN=NC,1.5 °C,,,-78 °C,,,
COC1CCC(OC)O1 (centres undefined),146 °C,,,,,,
O=C(O)C(Cl)=C(Cl)Cl,222 °C,,,76 °C,,,
c1ccc([C@@H]2CCCNC2)cc1,257 °C,,,14.5 °C,,,
CC(Br)CCCBr (centres undefined),,,,-34.4 °C,,,
CC(C)I,89.5 °C,,1.63,-90 °C,,,
O=C(OCc1ccccc1)c1ccccc1C(=O)OCc1ccccc1,,,,44 °C,,,
CCCCCCCC/C=C\CCCCCCCCCCCC(=O)O,,,,33.5 °C,,,
CC=Cc1ccc2c(c1)OCO2,253 °C,,,8.2 °C,,,
CC(C)COCc1ccccc1,212 °C,,,,,,
ClC(Cl)=C(Cl)Cl,121 °C,2.4,1.27,-22.3 °C,not readily biodegradable,-1.75,3.48
CC(C)=CCC[C@@H](C)C1=C(O)C(=O)C(C)=CC1=O,,,,104 °C,,,
COc1ccc2c(c1)c(CC(=O)O)c(C)n2C(=O)/C=C/c1ccccc1,,,,170 °C,,,
O=C(OC1CCCCC1)C(=O)OC1CCCCC1,,,,43.5 °C,,,
Nc1ccc2c(c1)CCC2,248 °C,,,37.5 °C,,,
O[C@H](CS)[C@H](O)CS,,,,62.8 °C,,,
OCCC1CCCCN1 (centres undefined),202 °C,,,69 °C,,,
CCCCNCCCC,160 °C,,0.413,-62 °C,readily biodegradable,-4.05,
